Drawing on BindingDB's records for patent US20240383893 (Haihe Biopharma, 2024), this text covers IC50 for 2 compounds.

The target in the assay is T1, Ectonucleotide pyrophosphatase/phosphodiesterase family member 1 (Homo sapiens, UniProt P22413).
T1 sequence (P22413 whole entry): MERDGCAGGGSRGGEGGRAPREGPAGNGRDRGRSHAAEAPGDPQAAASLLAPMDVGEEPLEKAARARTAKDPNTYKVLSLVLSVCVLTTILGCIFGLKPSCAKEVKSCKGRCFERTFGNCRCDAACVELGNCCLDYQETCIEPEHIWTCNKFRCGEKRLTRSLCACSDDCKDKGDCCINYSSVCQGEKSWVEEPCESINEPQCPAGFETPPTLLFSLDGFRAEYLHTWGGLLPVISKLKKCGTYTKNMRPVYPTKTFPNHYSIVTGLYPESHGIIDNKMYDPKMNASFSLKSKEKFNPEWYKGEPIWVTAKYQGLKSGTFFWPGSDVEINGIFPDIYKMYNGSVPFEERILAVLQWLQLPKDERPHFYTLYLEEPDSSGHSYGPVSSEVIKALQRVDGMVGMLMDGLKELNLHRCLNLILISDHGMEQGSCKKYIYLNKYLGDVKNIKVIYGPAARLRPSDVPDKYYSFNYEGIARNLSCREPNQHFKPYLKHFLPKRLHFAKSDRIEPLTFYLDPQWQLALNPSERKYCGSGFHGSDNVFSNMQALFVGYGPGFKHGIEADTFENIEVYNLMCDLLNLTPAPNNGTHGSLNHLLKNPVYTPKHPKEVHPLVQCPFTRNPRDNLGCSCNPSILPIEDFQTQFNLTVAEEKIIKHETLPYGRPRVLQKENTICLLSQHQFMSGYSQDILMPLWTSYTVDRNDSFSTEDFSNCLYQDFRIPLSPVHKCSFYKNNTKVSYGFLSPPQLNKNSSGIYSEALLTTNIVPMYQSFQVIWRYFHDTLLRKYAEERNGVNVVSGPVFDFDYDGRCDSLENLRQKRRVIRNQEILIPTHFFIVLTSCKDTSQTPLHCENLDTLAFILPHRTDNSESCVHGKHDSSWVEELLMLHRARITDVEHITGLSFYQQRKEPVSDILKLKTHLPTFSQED
The assay can be described thus: ENPP1 Inhibitory Activity Assay.

One may read the IC50 as the midpoint of a concentration-inhibition curve. The low end stands for greater potency, the high end for weaker potency. `COc1ccc2c(Oc3ccc(C(C(=O)NO)C(C)C)cc3)ccnc2n1` (configuration not stated) [US20240383893, Compound 130] had an IC50 of 6.9 nM.

The compound `COc1ccc2c(Oc3ccc(C(C)(C(=O)NO)C(C)C)cc3)ccnc2n1` (configuration not stated) [US20240383893, Compound 165] gave an IC50 of 23 nM.
